Each structure is given as a SMILES string. Read-outs that look alike come from different tables or passages of the source.

A short description of series [1]: Tests of equivalence of bioavailability: plasma pharmacokinetic parameters after subcutaneous injection. Type of series: in vivo, bovines. As to conditions: both sexes, bovine (cattle), sc. As for the experimental part: 24 young male and female bovines aged 11 months and with an average weight of 220 kg are treated individually with 1 subcutaneous injection of 40 mg/kg of florfenicol (Nuflor 450®—Merck, 450 mg of florfenicol/mL). Blood samples are taken regularly during the 7 days following this injection. This is followed by a wash-out period of 20 days. The animals then receive a subcutaneous injection of 0.5 mg/kg meloxicam (Metacam®, Boehringer Ingelheim, 5 mg of meloxicam/mL). Blood samples are taken regularly during the 7 days following this injection. This is followed by a new wash-out period of 20 days. […] Blood samples are taken regularly during the 7 days following this injection. The blood samples obtained during this treatment campaign make it possible to evaluate the pharmacokinetic parameters (Cmax and AUC0-t) and a pharmacological parameter (useful life of the antibiotic) by conventional methods known by a person skilled in the art.

The test system of series [2] is Histophilus somni. The series can be described thus: Useful life of the antibiotic (time plasma concentration is above MIC90). As to conditions: time plasma florfenicol is above MIC90 0.2 μg/mL for Histophilus somni; bovines, subcutaneous. Type of series: in vivo. As for the experimental part:
(§1) Blood samples are taken regularly during the 7 days following this injection. This is followed by a wash-out period of 20 days. The animals then receive a subcutaneous injection of 0.5 mg/kg meloxicam (Metacam®, Boehringer Ingelheim, 5 mg of meloxicam/mL). Blood samples are taken regularly during the 7 days following this injection. This is followed by a new wash-out period of 20 days. […] Blood samples are taken regularly during the 7 days following this injection. […] The useful life of an antibiotic is the time (in hours) during which the plasma concentration of a given antibiotic is above its MIC90 for the 3 representative microbes Mannheimia haemolytica, Histophilus somni, Pasteurella multocida.

In series [3] the test system is Mannheimia haemolytica. Described as above. The series is classed as in vivo. As to conditions: time plasma florfenicol is above MIC90 1 μg/mL for Mannheimia haemolytica; bovines, subcutaneous. As to the method:
as §1

In series [4] the test system is Pasteurella multocida. The description is as above. The series is classed as in vivo. As to conditions: time plasma florfenicol is above MIC90 0.5 μg/mL for Pasteurella multocida; bovines, subcutaneous. As to the method: as §1
Series [5] deals with Mannheimia haemolytica. As to conditions: Mannheimia haemolytica reference strain; cited from earlier work.
Series [6] deals with Histophilus somni. Particulars: Histophilus somni reference strain; cited from earlier work.
Series [7] deals with Pasteurella multocida. Particulars: Pasteurella multocida reference strain; cited from earlier work.

In general, Cmax refers to the highest concentration seen after dosing. As to `CS(=O)(=O)c1ccc([C@@H](O)[C@@H](CF)NC(=O)C(Cl)Cl)cc1` [Florfenicol, florfenicol], in series [1] (in vivo, 40 mg/kg), the AUC(0-t) came to 196 ± 45 µg·h/mL. Further, the Cmax in series [1] (in vivo, 40 mg/kg) was found to be 3500 ± 1040 ng/mL. For the same compound, the figures for the Calculated antibiotic life in the series on Histophilus somni [2], in the series with Mannheimia haemolytica [3] and with Pasteurella multocida [4] were 167.78 ± 0.13 h, 66.44 ± 20.65 h and 132.03 ± 27.22 h, respectively. Moreover, the “reference MIC90” value in the series with Mannheimia haemolytica [5] was 1 µg/mL; in the series with Histophilus somni [6] it was 0.2 µg/mL; in the series on Pasteurella multocida [7] it was 0.5 µg/mL.

Consider `Cc1cnc(NC(=O)C2=C(O)c3ccccc3S(=O)(=O)N2C)s1` [Meloxicam, meloxicam], for which the AUC(0-t) in series [1] (plasma, 0.5 mg/kg, read-out: AUC0-t of meloxicam in plasma) was determined as 40.6 ± 7.12 µg·h/mL. Further, in series [1] (plasma, 0.5 mg/kg, read-out: Cmax of meloxicam in plasma), the Cmax was determined as 2240 ± 357 ng/mL.

Values taken from patent US20170304450A1, “PARENTERAL COMPOSITIONS AND USES THEREOF” (CEVA SANTE ANIMALE, priority 2014, published 2017).
